Laboratory results reported in US20080064725A1, “INTRATHECAL ADMINISTRATION OF TRIPTAN COMPOSITIONS TO TREAT NON-MIGRAINE PAIN” (priority 2006, published 2008).

Columns and labels:
CD1 male mice [1] = experiment: hot plate test of acute thermal pain; type: in vivo
CD1 male mice [2] = experiment: formalin test of pain behavior
CD1 male mice [3] = experiment: radiant heat to the hindpaw (Hargreaves test), baseline thresholds; type: in vivo
CD1 male mice [4] = experiment: spared nerve injury (SNI) model of neuropathic pain; type: in vivo
Method: Spared nerve injury (SNI) model of neuropathic pain. A model of partial sciatic nerve injury was used in which the peroneal and sural nerves were selectively ligated and cut, sparing the tibial nerve. […] Animals were injected in a blinded cross-over manner, in which half of the animals received sumatriptan on one day and saline on the other.

CD1 male mice [5] = experiment: carrageenan-induced thermal and mechanical hypersensitivity
CD1 male mice [6] = experiment: mechanical nociceptive thresholds with calibrated monofilaments, baseline; type: in vivo
CD1 male mice [7] = experiment: CFA-induced persistent inflammation, mechanical hyperalgesia; type: in vivo; conditions: IT 0.0006, 0.006, 0.01, 0.06 μg; days 3-7 after CFA
Method: Intrathecal sumatriptan reduces the hyperalgesic effects of persistent inflammation induced by Complete Freunds Agent (CFA). CFA injection produces a prolonged period of mechanical hyperalgesia that persists and remains stable during days 3-7 after injection into the plantar surface of the hindpaw. CD1 male mice were used. Mechanical thresholds were tested on the first day, prior to a single injection of CFA to a hindpaw (baseline). By day 3 after CFA injection animals were hyperalgesic (post CFA 3d). Animals were tested for a sumatriptan response on 4 successive days (days 3-6) after CFA. A mechanical threshold was determined on each successive day prior to the administration of intrathecal sumatriptan. Doses of sumatriptan tested are: 0.0006 μg, 0.006 μg, 0.01 μg, and 0.06 μg, all in the volume of 5 μl. Mechanical thresholds were then determined at 30 and 60 min after the injection. The average withdrawal thresholds for the CFA-treated hindpaw at […] after the administration of each dose of sumatriptan was measured. The antihyperalgesic effect of each of these doses, expressed as a percent of the pre-injection threshold for that day, were compared to the original baseline.
Persistent inflammation after CFA. […] Hindpaw swelling pre- and 72 hours postinjection was measured to confirm the effects of the injection.

CD1 male mice [8] = experiment: Rotarod test for sedative and sensorimotor effects; type: in vivo; conditions: SC 300, 600 μg/kg or IT 0.06, 0.60 μg; one hour after dosing
Method: To screen for sedative and other adverse sensorimotor effects, mice were tested on a Rotarod (Ugo Basile, Comerio, Italy). The time in which mice were able to balance on a rod rotating on its axis at a constant velocity of 15 rpm were measured. The total duration of each trial was 300 sec. On the day prior to the test, animals accommodated to the task with three separate training trials. […] A single trial was used for each dose and route; reported times represent % change from the baseline value for each animal ±SEM.

[9] = sumatriptan SC 300, 600 μg/kg or IT 0.06, 0.60 μg, unstimulated baseline state
[10] = intrathecal, 24 hours after carrageenan to hindpaw, dose-dependent

SMILES: CN1CC[C@]23c4c5ccc(O)c4O[C@H]2[C@@H](O)C=C[C@H]3[C@H]1C5.O=S(=O)(O)O [morphine, morphine sulfate]
- hot-plate test analgesic response (CD1 male mice [1]; positive control, 10 nmol IT): robust analgesic response
- formalin test, first phase pain behavior (CD1 male mice [2]; positive control, 10 nmol IT): eliminated
- formalin test, second phase pain behavior (CD1 male mice [2]; positive control, 10 nmol IT): eliminated
- Hargreaves test analgesic response (CD1 male mice [3]; positive control, 10 nmol IT): robust analgesic response
- analgesia in SNI model (CD1 male mice [4]; IT morphine): profound analgesia, to cutoff latencies
- analgesia in carrageenan model (CD1 male mice [5]; IT morphine): profound analgesia, with all animals reaching the cutoff latency
- mechanical pain test analgesic response (CD1 male mice [6]; positive control, 10 nmol IT): robust analgesic response

SMILES: CNS(=O)(=O)Cc1ccc2[nH]cc(CCN(C)C)c2c1 [sumatriptan]
- hot-plate test threshold (latency) (CD1 male mice [1]; [9]): no significant changes in threshold
- formalin test, second phase (11-60 min) pain behavior (CD1 male mice [2]; IT 0.006, 0.06, 0.60 μg one hour before formalin, dose-dependent): profound reduction of pain behavior
- formalin test, second phase pain behavior (CD1 male mice [2]; systemic (SC) 300, 600 μg/kg one hour before formalin): modestly reduced second phase behaviors, but only at the highest dose tested
- Hargreaves test (radiant heat to hindpaw) threshold (CD1 male mice [3]; [9]): no significant changes in threshold
- mechanical hypersensitivity produced by nerve injury (SNI) (CD1 male mice [4]; SNI 7 d, regardless of dose or route of delivery, IT 0.6 μg, 30-120 min after drug): completely without effect
- nociceptive thresholds of unaffected contralateral leg (CD1 male mice [4]; SNI model, IT sumatriptan): unaffected
- time after injection at which antinociceptive effect was significant (CD1 male mice [5]; IT sumatriptan, carrageenan model): 30 min
- behavior after carrageenan, SC drug compared with control IT saline (CD1 male mice [5]; SC sumatriptan): did not differ
- pain thresholds of unstimulated contralateral hindlimb (CD1 male mice [5]; carrageenan model, sumatriptan): did not affect pain thresholds
- thermal latencies versus baseline (analgesic effect beyond reversal of hyperalgesia) (CD1 male mice [5]; intrathecal sumatriptan, carrageenan-treated hindpaw): latencies exceeded those at baseline
- mechanical hypersensitivity after carrageenan (CD1 male mice [5]; [10]): completely reversed
- thermal hypersensitivity after carrageenan (CD1 male mice [5]; [10]): completely reversed
- mechanical hypersensitivity after intraplantar CFA (CD1 male mice [7]): reduced mechanical hypersensitivity
- mechanical pain threshold, calibrated monofilaments (CD1 male mice [6]; [9]): no significant changes in threshold
- sedation or sensorimotor incoordination on the Rotarod test (CD1 male mice [8]): no evidence of confounding deficits due to sedation or sensorimotor incoordination
